US9156811B2 (priority 2008, dated 2015)
Like-named read-outs stand apart in the source and are kept apart here.

Tests used:
[1] = system: Trypanosome (T. brucei brucei); experiment: In-vitro antitrypanosomal efficacy assay (cell growth, resazurin); type: cell-based
Procedure: To column 12, 200 μl media was added to provide a no cells control. Plates were then incubated at 37° C. in an atmosphere of 5% CO2 for 69 hours, before the addition of 20 μl of 500 μM rezasurin solution, and a further incubation period of 4 hours. […] Concentration effect curves were fitted using non-linear regression using XLFit 4.2 and EC50 values determined.

NCI-H1299 = experiment: In-vitro antiproliferative assay, NCI-H1299; type: cell-based; conditions: Homo sapiens, read-out: IC50 NCI-H1299
MDA-MB-231 = experiment: In-vitro antiproliferative assay, MDA-MB-231; type: cell-based, human; conditions: read-out: IC50 MDA-MB-231
OE19 = experiment: In-vitro antiproliferative assay, OE19; type: cell-based; conditions: Homo sapiens, read-out: IC50 OE19
OE21 = experiment: In-vitro antiproliferative assay, OE21; type: cell-based; conditions: Homo sapiens, read-out: IC50 OE21
human NMT-1 = human NMT-1 (Homo sapiens (Human), UniProt P30419); experiment: NMT enzyme inhibition scintillation proximity assay, human NMT-1; type: biochemical; conditions: HuNMT-1
human NMT-1, sequence (P30419 whole entry): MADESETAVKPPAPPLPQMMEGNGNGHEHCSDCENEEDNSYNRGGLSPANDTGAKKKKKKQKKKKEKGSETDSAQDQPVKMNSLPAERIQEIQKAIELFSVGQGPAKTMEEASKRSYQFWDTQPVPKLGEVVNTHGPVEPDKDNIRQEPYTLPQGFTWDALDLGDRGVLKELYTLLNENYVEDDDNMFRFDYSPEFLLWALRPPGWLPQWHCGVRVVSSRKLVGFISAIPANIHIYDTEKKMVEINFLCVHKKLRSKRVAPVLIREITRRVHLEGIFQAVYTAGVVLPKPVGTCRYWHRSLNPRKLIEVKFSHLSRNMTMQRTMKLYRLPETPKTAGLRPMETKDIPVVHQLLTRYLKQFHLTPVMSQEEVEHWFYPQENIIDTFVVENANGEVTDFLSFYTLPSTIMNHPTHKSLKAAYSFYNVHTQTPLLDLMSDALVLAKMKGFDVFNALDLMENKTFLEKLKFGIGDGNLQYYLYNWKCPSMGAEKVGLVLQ

[2] = molecular target: T. brucei N-myristoyl transferase (Trypanosoma brucei brucei (strain 927/4 GUTat10.1), UniProt Q388H8); experiment: biochemical; type: biochemical; conditions: read-out: IC50 (μM) NMT Enzyme
T. brucei N-myristoyl transferase, sequence (Q388H8 1-446): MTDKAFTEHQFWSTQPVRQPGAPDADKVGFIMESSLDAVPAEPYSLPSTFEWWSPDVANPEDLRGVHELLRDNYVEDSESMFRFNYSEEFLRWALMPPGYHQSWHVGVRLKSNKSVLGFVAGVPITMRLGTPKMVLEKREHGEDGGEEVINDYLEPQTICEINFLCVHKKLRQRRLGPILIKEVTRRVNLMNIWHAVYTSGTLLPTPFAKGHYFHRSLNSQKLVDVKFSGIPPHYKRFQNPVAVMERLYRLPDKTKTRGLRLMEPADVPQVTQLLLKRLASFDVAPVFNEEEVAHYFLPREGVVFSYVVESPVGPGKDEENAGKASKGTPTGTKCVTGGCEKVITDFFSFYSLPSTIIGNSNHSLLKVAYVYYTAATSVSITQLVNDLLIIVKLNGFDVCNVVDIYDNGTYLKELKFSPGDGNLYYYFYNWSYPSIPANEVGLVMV

[3] = molecular target: A. fumigatus N-myristoyl transferase (Aspergillus fumigatus (strain ATCC MYA-4609 / CBS 101355 / FGSC A1100 / Af293) (Neosartorya fumigata), UniProt Q9UVX3); experiment: biochemical; type: biochemical; conditions: read-out: IC50 (μM) NMT Enzyme (AfNMT)
[4] = CNS penetration: drug concentration in blood and brain after i.v. dosing; type: in vivo; conditions: iv, female NMRI mouse, t = 5 min; for Kp at 5 min: brain / whole blood; for concentration at 5 min: average of three animals
Procedure: Assessment of the CNS penetration of NMT inhibitors was determined in the female NMRI mouse following i.v. dosing (n=3 per dose group, concentration measured after t=5 min).

HT29 = experiment: In-vitro antiproliferative assay, HT29; type: cell-based, human
HCT116 = experiment: In-vitro antiproliferative assay, HCT116; type: cell-based, human; conditions: read-out: IC50 HCT116
C6 = experiment: In-vitro antiproliferative assay, C6; conditions: C6, 72 h, read-out: IC50 C6
H460 = experiment: In-vitro antiproliferative assay, H460; conditions: Homo sapiens, NCI-H460, 72 h, read-out: IC50 H460
MRC5 = experiment: In-vitro antiproliferative assay, MRC5; conditions: Homo sapiens, MRC5, 72 h, read-out: IC50 MRC5
A549 = experiment: In-vitro antiproliferative assay, A549; conditions: Homo sapiens, A549, 72 h, read-out: IC50 A549
SkBr3 = experiment: In-vitro antiproliferative assay, SkBr3; conditions: Homo sapiens, SK-BR-3, 72 h, read-out: IC50 SkBr3
RT112 = experiment: In-vitro antiproliferative assay, RT112; conditions: Homo sapiens, RT-112, 72 h, read-out: IC50 RT112
HT1080 = experiment: In-vitro antiproliferative assay, HT1080; conditions: Homo sapiens, HT-1080, 72 h, read-out: IC50 HT1080
[5] = value printed without enzyme tag in the NMT Enzyme column (taken as T. brucei NMT)
[6] = value with no enzyme tag in the cell, taken as T. brucei NMT
[7] = Homo sapiens, HCT-116, Table 4, 72 h, Alamar blue
[8] = Homo sapiens, MDA-MB-231, Table 4, 72 h, Alamar blue
[9] = brain, single i.v. dose 2.0 mg/kg, read-out: Conc (ng/ml in brain)
[10] = whole blood, single i.v. dose 2.0 mg/kg, read-out: Conc (ng/ml in blood)
[11] = T. brucei brucei, blood stream form, variant 221

Cc1nn(C)c(C)c1N[S+](=O)([O-])c1c(Cl)cc(-c2cccc(C3CCNCC3)c2)cc1Cl
ED50 (μM) T. brucei ([1]; T. brucei cell growth): 0.02 µM | IC50 (NCI-H1299; NCI-H1299, 72 h): 3710 nM | IC50 (MDA-MB-231; Homo sapiens, MDA-MB-231, 72 h): 890 nM | IC50 (OE19; OE19, 72 h): 4570 nM | IC50 (OE21; OE21, 72 h): 1200 nM

COc1cc2c(cc1OC)CN(c1ccc([S+](=O)([O-])Nc3c(C)nn(C)c3C)cn1)CC2 [DDD73476]
IC50 (human NMT-1): 2.3 µM | IC50 [2, 5]: 0.32 µM | IC50 ([3]; AfNMT): 4.8 µM | ED50 (μM) T. brucei ([1]; T. brucei cell growth): 1.8 µM

Cc1nn(C)c(C)c1N(C)[S+](=O)([O-])c1c(Cl)cc(Br)cc1Cl [DDD73490, 4-Bromo-2,6-dichloro-N-methyl-N-(1,3,5-trimethyl-1H-pyrazol-4-yl)-benzenesulfonamide]
IC50 (human NMT-1): 4 µM | IC50 [2, 5]: 0.36 µM | IC50 ([3]; AfNMT): 3.9 µM | ED50 (μM) T. brucei ([1]; T. brucei cell growth): 2.8 µM | Kp at 5 min ([4]; single i.v. dose 0.33 mg/kg): 6 | concentration at 5 min ([4]; brain, single i.v. dose 0.33 mg/kg, read-out: Conc (ng/ml in brain)): 314 ng/mL | concentration at 5 min ([4]; whole blood, single i.v. dose 0.33 mg/kg, read-out: Conc (ng/ml in blood)): 52 ng/mL

Cc1nn(C)c(C)c1NS(=O)(=O)c1ccc(N2CCc3cccc(N)c3C2)nc1 [DDD73498, 6-(8-Amino-3,4-dihydro-1H-isoquinolin-2-yl)-pyridine-3-sulfonic acid (1,3,5-trimethyl-1H-pyrazol-4-yl)-amide]
IC50 (human NMT-1): 4.3 µM | IC50 [2, 5]: 0.32 µM | IC50 ([3]; AfNMT): 14.7 µM | ED50 (μM) T. brucei ([1]; T. brucei cell growth): 2.6 µM

Cc1nn(C)c(C)c1N[S+](=O)([O-])c1c(Cl)cc(-c2ccnc(N3CCNCC3)c2)cc1Cl [DDD85646, 2,6-Dichloro-4-(2-piperazin-1-yl-pyridin-4-yl)-N-(1,3,5-trimethyl-1H-pyrazol-4-yl)-benzenesulfonamide]
ED50 (μM) T. brucei ([1]; T. brucei cell growth): 0.001 µM | IC50 (HT29; Homo sapiens, HT-29, 72 h, read-out: IC50 HT29): 112 nM | IC50 (HT29; Homo sapiens, HT-29, 72 h, read-out: IC50 HT-29): 112 nM | IC50 (HCT116; Homo sapiens, HCT-116, 72 h): 234 nM | IC50 (NCI-H1299; NCI-H1299, 72 h): 570 nM | IC50 (MDA-MB-231; Homo sapiens, MDA-MB-231, 72 h): 230 nM | IC50 (OE19; OE19, 72 h): 660 nM | IC50 (OE21; OE21, 72 h): 290 nM | IC50 (C6): 1160 nM | IC50 (H460): 1320 nM | IC50 (MRC5): 123 nM | IC50 (A549): 157 nM | IC50 (SkBr3): 108 nM | IC50 (RT112): 330 nM | IC50 (HT1080): 60 nM

Cc1nn(C)c(C)c1N[S+](=O)([O-])c1ccc(-c2cccc(CN3CCN(C)CC3)c2)cc1 [DDD86212, 3′-(4-Methyl-piperazin-1-ylmethyl)-biphenyl-4-sulfonic acid (1,3,6-trimethyl-1H-pyrazol-4-yl)-amide]
ED50 (μM) T. brucei ([1]; T. brucei cell growth): 0.03 µM | IC50 (NCI-H1299; NCI-H1299, Table 3, 72 h, Alamar blue): 1080 nM | IC50 (MDA-MB-231; Homo sapiens, MDA-MB-231, Table 3, 72 h, Alamar blue): 640 nM | IC50 (OE19; OE19, Table 3, 72 h, Alamar blue): 4370 nM | IC50 (OE21; OE21, Table 3, 72 h, Alamar blue): 1390 nM

Cc1c(N[S+](=O)([O-])c2c(Cl)cc(-c3ccnc(N4CCNCC4)c3)cc2Cl)c(CC(C)C)nn1C [DDD86481, 2,6-Dichloro-N-(3-isobutyl-1,5-dimethyl-1H-pyrazol-4-yl)-4-(2-piperazin-1-yl-pyridin-4-yl)-benzenesulfonamide]
IC50 (NCI-H1299; NCI-H1299, 72 h): 96 nM | IC50 (MDA-MB-231; Homo sapiens, MDA-MB-231, 72 h): 47 nM | IC50 (OE19; OE19, 72 h): 132 nM | IC50 (OE21; OE21, 72 h): 57 nM

Cc1nn(C)c(C)c1N[S+](=O)([O-])c1ccc(-c2cccc(Cn3ccnc3)c2)cc1 [DDD88006, 3′-imidazol-1-ylmethyl-biphenyl-4-sulfonic acid (1,3,6-trimethyl-1H-pyrazol-4-yl)-amide]
IC50 [2, 6]: 0.35 µM | IC50 [3]: 4.2 µM | ED50 (μM) T. brucei ([1]; T. brucei cell growth): 3.9 µM

CCN(CC)Cc1cccc(-c2ccc([S+](=O)([O-])N(C)c3c(C)nn(C)c3C)cc2)c1 [DDD88195, 3′-Diethylaminomethyl-biphenyl-4-sulfonic acid methyl-(1,3,5-trimethyl-1H-pyrazol-4-yl)-amide]
IC50 [2, 6]: 0.05 µM | ED50 (μM) T. brucei ([1]; T. brucei cell growth): 0.51 µM | Kp at 5 min ([4]; single i.v. dose 1.0 mg/kg): 0.8 | concentration at 5 min ([4]; brain, single i.v. dose 1.0 mg/kg, read-out: Conc (ng/ml in brain)): 93 ng/mL | concentration at 5 min ([4]; whole blood, single i.v. dose 1.0 mg/kg, read-out: Conc (ng/ml in blood)): 116 ng/mL

Cc1nn(C)c(C)c1N[S+](=O)([O-])c1c(Cl)cc(-c2cccc(CN3CCN(C)CC3)c2)cc1Cl [DDD88558]
ED50 (μM) T. brucei ([1]; T. brucei cell growth): 0.009 µM | IC50 (HT29; Homo sapiens, HT-29, Table 4, 72 h, Alamar blue, read-out: IC50 HT-29): 176 nM | IC50 (HCT116; [7]): 629 nM | IC50 (MDA-MB-231; [8]): 448 nM

CCN(CC)Cc1cccc(-c2ccc([S+](=O)([O-])Nc3c(CC(C)C)nn(C)c3C)cc2)c1 [DDD88638]
IC50 [2, 6]: 0.009 µM | ED50 (μM) T. brucei ([1]; T. brucei cell growth): 0.084 µM | Kp at 5 min ([4]; single i.v. dose 2.0 mg/kg): 1.35 | concentration at 5 min [4, 9]: 378 ng/mL | concentration at 5 min [4, 10]: 281 ng/mL

Cc1c(N[S+](=O)([O-])c2c(Cl)cc(CCCC3CCNCC3)cc2Cl)c(CC(C)C)nn1C [DDD90086]
IC50 [2, 6]: 0.004 µM | ED50 (μM) T. brucei ([1]; T. brucei cell growth): 0.006 µM | IC50 (HT29; Table 4, 72 h, Alamar blue, read-out: IC50 HT-29): 281 nM | IC50 (HCT116; Table 4, 72 h, Alamar blue): 921 nM | IC50 (MDA-MB-231; Table 4, 72 h, Alamar blue): 537 nM

Cc1nn(C)c(C)c1N(C)[S+](=O)([O-])c1ccc(CCCCCCn2ccnc2)cc1 [DDD99754]
IC50 (human NMT-1): 2.1 µM | IC50 [2, 6]: 0.105 µM | IC50 [3]: > 1 µM | ED50 (μM) T. brucei ([1]; T. brucei cell growth): >1 µM

Cc1nn(C)c(C)c1N(C(F)F)[S+](=O)([O-])c1c(Cl)cc(CCCC2CCN(C)CC2)cc1Cl [DDD100097, 2,6-dichloro-N-(difluoromethyl)-4-(3-(1-methylpiperidin-4-yl)propyl)-N-(1,3,5-trimethyl-1H-pyrazol-4-yl)benzenesulfonamide]
ED50 (μM) T. brucei [1, 11]: 0.001 µM | Kp at 5 min ([4]; single i.v. dose 2.0 mg/kg): 1.5 | concentration at 5 min [4, 9]: 335 ng/mL | concentration at 5 min [4, 10]: 224 ng/mL

Cc1nn(C)c(C)c1N(C(F)F)[S+](=O)([O-])c1c(Cl)cc(CCCCC2CCN(C)CC2)cc1Cl [DDD100144, 2,6-dichloro-N-(difluoromethyl)-4-(4-(1-methylpiperidin-4-yl)butyl)-N-(1,3,5-trimethyl-1H-pyrazol-4-yl)benzenesulfonamide]
IC50 (HCT116; Homo sapiens, HCT-116, 72 h): 282 nM | IC50 (MDA-MB-231; Homo sapiens, MDA-MB-231, 72 h): 218 nM | concentration at 5 min [4, 9]: 545 ng/mL | concentration at 5 min [4, 10]: 413 ng/mL

Cc1nn(C)c(C)c1N(CC(F)(F)F)[S+](=O)([O-])c1c(Cl)cc(CCCC2CCN(C)CC2)cc1Cl [DDD100153, 2,6-dichloro-4-(3-(1-methylpiperidin-4-yl)propyl)-N-(2,2,2-trifluoroethyl)-N-(1,3,5-trimethyl-1H-pyrazol-4-yl)benzenesulfonamide]
ED50 (μM) T. brucei [1, 11]: 0.023 µM | Kp at 5 min ([4]; single i.v. dose 2.0 mg/kg): 0.64 | concentration at 5 min [4, 9]: 171 ng/mL | concentration at 5 min [4, 10]: 269 ng/mL

Cc1nn(C)c(C)c1N(C(F)F)[S+](=O)([O-])c1c(Cl)cc(CCCOC2CCN(C)CC2)cc1Cl [DDD100169]
IC50 (HCT116; [7]): 419 nM | IC50 (MDA-MB-231; [8]): 249 nM
